Test results reported in ChEMBL document CHEMBL3091414, “Validation of Reactivity Descriptors to Assess the Aromatic Stacking within the Tyrosine Gate of FimH” (ACS Med Chem Lett, 2013).

Assay: Binding affinity to Escherichia coli J96 FimH lectin domain (Phe1 to Thr158) expressed in Escherichia coli C43 (DE3) by surface plasmon resonance analysis

Q: With `CCCCO[C@H]1O[C@H](CO)[C@@H](O)[C@H](O)[C@@H]1O` [BUTYLALPHAMAN] as the molecule, how does the Kd read?
A: 151 nM

Q: Which Kd does the source give for `COc1ccc(C#CCO[C@H]2O[C@H](CO)[C@@H](O)[C@H](O)[C@@H]2O)cc1` here?
A: 53 nM

Q: For `O=C(C[C@H]1O[C@H](CO)[C@@H](O)[C@H](O)[C@@H]1O)Nc1ccccc1`, which Kd is on record?
A: 372 nM

Q: With `CCCCCCCO[C@H]1O[C@H](CO)[C@@H](O)[C@H](O)[C@@H]1O` as the molecule, how does the Kd read?
A: 3.1 nM

Q: For `O=C(C[C@H]1O[C@H](CO)[C@@H](O)[C@H](O)[C@@H]1O)Nc1ccc(Cl)cc1`, which Kd is on record?
A: 113 nM

Q: Which Kd does the source give for `CCCSCCCO[C@H]1O[C@H](CO)[C@@H](O)[C@H](O)[C@@H]1O` here?
A: 14 nM

Q: For `OCC#Cc1ccc(O[C@H]2O[C@H](CO)[C@@H](O)[C@H](O)[C@@H]2O)cc1`, which Kd is on record?
A: 36.9 nM

Q: Which Kd does the source give for `O=C(C[C@H]1O[C@H](CO)[C@@H](O)[C@H](O)[C@@H]1O)Nc1nc2ccccc2[nH]1` here?
A: 4200 nM

Q: With `O=C(C[C@H]1O[C@H](CO)[C@@H](O)[C@H](O)[C@@H]1O)Nc1nc2ccccc2s1` as the molecule, how does the Kd read?
A: 59 nM

Q: With `O=C(C[C@H]1O[C@H](CO)[C@@H](O)[C@H](O)[C@@H]1O)Nc1ccc(O)cc1` as the molecule, how does the Kd read?
A: 328 nM

Assay: Binding affinity to Escherichia coli J96 FimH lectin domain (Phe1 to Thr158) expressed in Escherichia coli C43 (DE3) by isothermal titration calorimetry assay

Q: With `CCCCO[C@H]1O[C@H](CO)[C@@H](O)[C@H](O)[C@@H]1O` [BUTYLALPHAMAN] as the molecule, how does the Kd read?
A: 154 nM

Q: With `COCC#Cc1ccc(O[C@H]2O[C@H](CO)[C@@H](O)[C@H](O)[C@@H]2O)cc1` as the molecule, how does the Kd read?
A: 59.5 nM

Q: With `CCCCCCCO[C@H]1O[C@H](CO)[C@@H](O)[C@H](O)[C@@H]1O` as the molecule, how does the Kd read?
A: 7.3 nM
